Results reported in patent US20130209986A1, “METHOD FOR ENHANCING BUTYRATE PRODUCTION BY CLOSTRIDIUM TYROBUTYRICUM” (KOREA INSTITUTE OF SCIENCE AND TECHNOLOGY, priority 2012, published 2013).

What was measured:
[1] = system: Clostridium tyrobutyricum strains; assay: Fermentation of Clostridium tyrobutyricum with an electron transfer mediator added to the P2 culture medium (Experimental Example 1); format: cell-based; conditions: for Enhancement of butyrate production by simply adding the mediator to the medium: simple addition, no reduction electrode
Procedure: The P2 culture medium (Qureshi and Blaschek 1999) of pH 6.4±0.1 containing sucrose of 20 g/L instead glucose was sterilized. The Methyl Viologen (MV) (E°′=−446 mV) (Aldrich, South Korea) was added to the sterilized P2 culture medium with the concentrations of 0.1 mM (embodiment 1-1), 0.4 mM (embodiment 1-2), 0.5 mM (embodiment 1-3), 1.0 mM (embodiment 1-4), 2.0 mM (embodiment 1-5), 5.0 mM (embodiment 1-6) and 10.0 mM (embodiment 1-7). The separated Clostridium tyrobutyricum strains were inoculated on the MV-added P2 culture medium and were cultured at 37° C. and 150 rpm.
The strains were cultured under the same conditions as the conditions of the embodiments 1-1 to 1-7 except for the strains which didn't have an added MV.
The strains were cultured under the same conditions as the conditions of the embodiments 1-1 to 1-7 except for the strains on which 0.1 mM and 0.5 mM of the Neutral Red (NR) (E°′=−325 mV) (Aldrich, South Korea) were added instead of the MV.
The strains were cultured under the same conditions as the conditions of the embodiments 1-1 to 1-7 except for the strains on which 0.5 mM of anthraquinone-1,5-disulfonic acid, AQDS) (E°′=−184 mV) (Aldrich, South Korea) was added instead of the MV.
The butyrate and acetate produced through the embodiments 1-1 to 1-7, the comparison example 1, the comparison examples 2-1 to 2-7 and the comparison examples 3-1 to 3-7 were analyzed by HP-INNOWax column (30 m×250 μm×0.25 μm, Agilent Technologies and the gas chromatography (GC, Agilent technology 6890N Network GC System) with the frame-ionized detector. The hydrogen and carbon dioxide were quantified by multiplying the gas composition with the increased gas volume. The gas composition percentage was analyzed by the GC having a heat conductivity detector. The consumed sucrose concentration was quantified by a high performance liquid chromatography (HPLC) (Hi-plex H, Agilent, Santa Clara, Calif.) with 5 mM of sulfuric acid as a mobile phase at the flow rate of 0.5 mLmin^−1. The growth of microorganisms was checked at 600 nm of absorbance by using Shimadzu UVmini-1240 spectrophotometer or was checked with the Chemical Oxygen Demand (COD, mg/L unit) induced by the base soluble COD from the total COD by using COD vials (C-mac, South Korea, concentration range of 10-1,500 mg/L). The obtained values were average values obtained as the experiments were repeatedly performed three times or four times under a corresponding condition.

[2] = system: Clostridium tyrobutyricum; assay: Fermentation of Clostridium tyrobutyricum in a bioelectrical reactor (BER) with reduction electrode and electron transfer mediator (Experimental Example 2); format: cell-based
Procedure: A Bioelectrical Reactor (BER) formed of Pyrex was manufactured, which was specially designed for the sake of the anaerobic bacteria culture by changing a little the H-type reactor with a dual chamber (450 mL each). The reduction electrode (cathode) was a graphite felt electrode (4.5 cm×12 cm), and the oxidation electrode (anode) was a Pt plate electrode (2.5 cm×5 cm). The reference electrode was Ag/AgCl, 3 M KCl (BASi, West Lafayette, Ind.) and was dipped at a portion of the reduction electrode. The portions of the oxidation electrode and the reduction electrode were separated by Nafion 117 positive ion-exchange membrane (Naracell-tech, South Korea). The biological gas was collected by a Tedlar bag connected with a stainless steel fitting inserted in a reduction electrode stopper. The temperature of the reactor was maintained at 37±1° C. by a heating tape (Daihan, South Korea). The temperature sensor was inserted into a partition of the oxidation electrode by way of the stainless steel stand rod.
The portion of the reduction electrode of the reactor has features in that the neutral red was filled with the P2 medium added with 0.1 mM, and the portion of the oxidation electrode was filled with hexacyanoferrate [K4(Fe(CN)6)·3H2O]. The BER operated under a constant reduction electrode potential of −400 mV (vs. Ag/AgCl). The above mentioned potential was set by the potentiostat/galvanostat (EG&G Princeton Applied Research, Model 273A, Princeton, N.J.) which could be controlled by a computer. So, the current between the oxidation electrode and the reduction electrode was monitored. The reduction voltage applied to the reduction electrode was determined from the redox peak in the cyclic voltammogram of the culture liquid to which the neutral red was added at the scan speed of 20 mV/s based on the reduction electrode versus Ag/AgCl. The reduction of the neutral red by the reduction electrode appeared as the color of the solution turned from the red (NRox) to the yellow (NRred) when it was balanced to the negative potential within 5-30 minutes. For the sake of pH-adjusted BER operation, pH was maintained at 6 by temporarily adding 3M NaOH.
The embodiment 3 was performed in the same manner as the embodiment 2 except for the adjustment of pH.
The embodiment 4 was performed in the same manner as the embodiment 2 except that the portion of the reduction electrode of the reactor was filed with the P2 medium added with the MV of 0.5 mM of concentration was operated under a constant reduction electrode potential of −750 mV (vs. Ag/AgCl). In case of the MV, the reduction had features in that the color of the solution turned from a colorlessness (MVox) to a purple color (MVred).

[3] = Embodiment 4: methyl viologen 0.5 mM, −750 mV
[4] = methyl viologen 0.1 mM (embodiment 1-1)
[5] = methyl viologen 0.4 mM (embodiment 1-2)
[6] = methyl viologen 0.5 mM (embodiment 1-3)
[7] = methyl viologen 1 mM (embodiment 1-4)
[8] = methyl viologen 2 mM (embodiment 1-5)
[9] = methyl viologen 5 mM (embodiment 1-6)
[10] = methyl viologen 10 mM (embodiment 1-7)
[11] = Embodiment 2: BER with neutral red 0.1 mM, −400 mV, pH 6 controlled
[12] = Embodiment 3: BER with neutral red 0.1 mM, −400 mV, no pH control

In the case of `O=C1c2cccc(S(=O)(=O)O)c2C(=O)c2cccc(S(=O)(=O)O)c21` [AQDS, anthraquinone-1,5-disulfonic acid], the “Enhancement of butyrate production by simply adding the mediator to the medium” value (“Enhancement of butyrate production” below) [1] is reported as “impossible to enhance the production of butyrate”.
`C[n+]1ccc(-c2cc[n+](C)cc2)cc1` [Methyl viologen, Methyl Viologen] was tested, and the “Acetate productivity (maximum productivity)” value (from here on “Acetate productivity”) [2, 3] was 0.25 ± 0 g/L, h^−1, the “Butyrate productivity (maximum productivity)” value (shortened to “Butyrate productivity”) [2, 3] was 0.34 ± 0.01 g/L, h^−1 and the Butyrate yield [2, 3] was 0.43 ± 0.02 g butyrate/g sucrose. For the same compound, the Final butyrate concentration [2, 3] was 7.1 ± 0.4 g/L, the “Maximum O.D. (600 nm)” value [2, 3] was 5.3 ± 0.4 and the Specific growth rate [2, 3] was 0.10 ± 0.01 h⁻¹. For the same compound, the “Sucrose uptake rate (maximum uptake rate)” value (“Sucrose uptake rate” for short) [2, 3] was 0.85 ± 0.05 g/L, h^−1, the “Production of butyrate in the reduction electrode system” value ([2]; MV, embodiment 4, −750 mV vs. Ag/AgCl) was “didn't help enhance the production of butyrate” and the “Final concentration of butyrate as compared to the comparison group” value ([1]; 0.5 mM, simple addition without reduction electrode) was “about 1.5 times”. For the same compound, the “Production of butyrate among MV, NR and AQDS (FIG. 2)” value ([1]; mediators added at 0.5 mM) was “highest”, the “Bio-gas % vs. control” value [1, 4] was 82% and the Bio-gas vol [1, 4] was 110 mL. The “Butyrate % vs. control” value [1, 4] was 115%, the Butyrate final conc. [1, 4] was 6.5 g/L and the “OD (600 nm)” value ([1]; methyl viologen 0.1 mM (embodiment 1-1), P2 medium sucrose 20 g/L, 37° C.) was 6.2 (±0.4). The “Bio-gas % vs. control” value [1, 5] was 80%, the Bio-gas vol [1, 5] was 107 mL and the “Butyrate % vs. control” value [1, 5] was 128%. The Butyrate final conc. [1, 5] was 7.3 g/L, the “OD (600 nm)” value [1, 5] was 6.3 (±0)^ and the “Bio-gas % vs. control” value [1, 6] was 65%. For the same compound, the Bio-gas vol [1, 6] was 87 mL, the “Butyrate % vs. control” value [1, 6] was 150% and the Butyrate final conc. [1, 6] was 8.5 g/L. The “OD (600 nm)” value [1, 6] was 5.8 (±0.3), the “Bio-gas % vs. control” value [1, 7] was 50% and the Bio-gas vol [1, 7] was 67 mL. For the same compound, the “Butyrate % vs. control” value [1, 7] was 109%, the Butyrate final conc. [1, 7] was 6.2 g/L and the “OD (600 nm)” value [1, 7] was 5.4 (±0.8). The “Bio-gas % vs. control” value [1, 8] was 34%, the Bio-gas vol [1, 8] was 46 mL and the “Butyrate % vs. control” value [1, 8] was 112%. The Butyrate final conc. [1, 8] was 6.4 g/L, the “OD (600 nm)” value [1, 8] was 3.9 (±0.9) and the “Bio-gas % vs. control” value [1, 9] was 3%. The Bio-gas vol [1, 9] was 4 mL, the “Butyrate % vs. control” value [1, 9] was 14% and the Butyrate final conc. [1, 9] was 0.8 g/L. The “OD (600 nm)” value [1, 9] was 1.5 (±1.9), the “Bio-gas % vs. control” value [1, 10] was 3% and the Bio-gas vol [1, 10] was 4 mL. The “Butyrate % vs. control” value [1, 10] was 12%, the Butyrate final conc. [1, 10] was 0.7 g/L and the “OD (600 nm)” value [1, 10] was 0.2 (±0.1).
With `Cc1cc2nc3ccc(N(C)C)cc3nc2cc1N.Cl` [neutral red, Neutral Red] the “Acetate productivity” value [2, 11] was 0 g/L, h^−1, the “Butyrate productivity” value [2, 11] was 0.28 ± 0.01 g/L, h^−1 and the Butyrate yield [2, 11] was 0.44 ± 0.04 g butyrate/g sucrose. The Final butyrate concentration [2, 11] was 8.8 ± 0.9 g/L, the “Maximum O.D. (600 nm)” value [2, 11] was 5.1 ± 0.7 and the Specific growth rate [2, 11] was 0.87 ± 0.64 h⁻¹. For the same compound, the “Sucrose uptake rate” value [2, 11] was 0.67 ± 0 g/L, h^−1, the “Acetate productivity” value [2, 12] was 0 g/L, h^−1 and the “Butyrate productivity” value [2, 12] was 0.31 ± 0.07 g/L, h^−1. For the same compound, the Butyrate yield [2, 12] was 0.45 ± 0.02 g butyrate/g sucrose, the Final butyrate concentration [2, 12] was 6.7 ± 0.3 g/L and the “Maximum O.D. (600 nm)” value [2, 12] was 5.0 ± 0.4. The Specific growth rate [2, 12] was 0.11 ± 0.01 h⁻¹, the “Sucrose uptake rate” value [2, 12] was 0.64 ± 0.31 g/L, h^−1 and the “Production of butyrate (FIG. 4)” value ([2]; embodiment 2, neutral red reduction electrode system, increased from 5 g/L) was 8 g/L. For the same compound, the “Acetic acid production in the reduction electrode system” value ([2]; embodiments 2 and 3, neutral red) was “did not produce acetic acid”, the “Production of butyrate in the reduction electrode system” value ([2]; neutral red, embodiments 2 and 3, −400 mV vs. Ag/AgCl) was “increase in the production of butyrate” and the “Enhancement of butyrate production” value [1] was “didn't make any effects”. The “Enhancement of butyrate production” value ([1]; listed as NR) was “impossible to enhance the production of butyrate”.
